The structures appear in SMILES notation.

In the first test the target is T1, DENV2 NS2B–NS3 protease (Dengue virus type 2, UniProt P14340).
T1 construct: Activity of recombinant dengue 2 virus NS3 protease in the presence of a truncated NS2B co-factor; The N-terminal domain of NS3 contains a highly conserved protease-active core; made in house; host or cells: Escherichia coli BL21(DE3)
T1 sequence (P14340 1476-1653): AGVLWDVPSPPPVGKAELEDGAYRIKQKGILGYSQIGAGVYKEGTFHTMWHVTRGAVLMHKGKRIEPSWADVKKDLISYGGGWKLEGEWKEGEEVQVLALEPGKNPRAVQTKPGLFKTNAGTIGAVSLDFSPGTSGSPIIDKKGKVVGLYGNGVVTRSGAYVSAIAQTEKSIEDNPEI
T1 sequence (P14340 1398-1437): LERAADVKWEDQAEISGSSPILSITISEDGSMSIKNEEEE
As to the kind of experiment: In vitro DENV2 NS2B/NS3pro inhibition assay using a FRET substrate. The class given is biochemical. The settings on record: 5 µM substrate, 10 nM NS2b-NS3pro, compounds at 1, 10 and 100 µM, 1 h at RT; compounds 3s-3an. On the procedure:
To assess the anti-DENV NS2B–NS3 activity of the compounds, we expressed the DENV2 NS2B–NS3 protease in BL21DE3 cells and subsequently purified it using Ni-NTA affinity chromatography, as outlined in Materials and Methods ([39], [40]). The protease activity assay was performed using different concentrations (1, 2.5, 5, 10, 25, 50, 75, and 100 µM) of a fluorogenic substrate (Abs-Nle-Lys-Arg-Arg-Ser-3-(NO2)Tyr) at various time points (5, 15, 30, 45, and 60 min), as described previously ([39], [41]). […] Therefore, all subsequent assays were conducted with a 1 h incubation time.
The selected compounds were analyzed using in vitro protease assays performed in black 96-well plates. […] All assays were performed in triplicate. The release of free AMC was measured using a Varioskan LUX multimode microplate reader (Thermo Fisher Scientific) at excitation and emission wavelengths of 380 and 460 nm, respectively. Control fluorescence values obtained in the absence of inhibitors were considered 100%, and those obtained in the presence of inhibitors were calculated as the percentage of inhibition of the control using Microsoft Excel and plotted using Origin Pro 2023b. The background AMC in the absence of protease was subtracted before data analysis. Further, protease assay was done using different concentration of the compounds (1, 10, and 100 µM) to evaluate the IC50 for the in vitro assay. IC50 curves were fitted and determined by fitting the nonlinear equation in Origin2023b software. A similar approach was used to analyze the enzymatic kinetics of protease inhibition. The reaction progress was monitored by the release of free aminomethylcoumarin (AMC), as previously described. The substrate was incubated with or without the inhibitor in the aforementioned reaction buffer in the presence of varying concentrations of the substrate. The reactions were initiated by the addition of the NS2B–NS3 protease. Protease activity was monitored for 1 h based on the initial rate of increase in fluorescence intensity at 460 nm, with an excitation wavelength of 380 nm. The results were analyzed using Origin Pro 2023b and the Michaelis–Menten equation to obtain the apparent Michaelis–Menten constants and maximal velocities. All assays were performed in triplicate. For each tested compound, two different concentrations of the inhibitor (0, 10, and 25 µM) were used at various concentrations (0–250 μM) of the substrate. The mechanism of inhibition was determined by observing the deviations in the apparent Km and Vmax values.
Consider `COc1ccc(OC)c(/C(C)=N/Nc2nc(-c3cccc([N+](=O)[O-])c3)cs2)c1` [3aa], for which the “IC50 (µM), DENV protease inhibitory activity” value is “completely lost its activity”.

Staying with this test, now noted: IC50 (µM), DENV2 NS2B–NS3 protease inhibitory activity, 5 µM substrate, 10 nM NS2b-NS3pro, compounds at 1, 10 and 100 µM, 1 h at RT; compounds 3a-3r.
Regarding `COc1ccc(/C=N/Nc2nc(-c3ccc(Cl)cc3)cs2)cc1OC` [3n], the IC50 (as a rule, the concentration needed to halve the response being measured) was 248 µM.
The same measure, in the same setting: with `COc1ccc(OC)c(/C=N/Nc2nc(-c3ccc(Cl)cc3)cs2)c1` [3m] the figure was 216 µM.
Same read-out and setting: the value for `O=[N+]([O-])c1cccc(-c2csc(N/N=C/c3ccccc3F)n2)c1` [3f] was 117 µM.
The same measure, in the same setting: with `Clc1ccc(-c2csc(N/N=C/c3cccc(Br)c3)n2)cc1` [3r] the figure was more than 100 µM.
`COc1ccccc1/C=N/Nc1nc(-c2cccc([N+](=O)[O-])c2)cs1` [3c]: the concentration for half-maximal inhibition (IC50) stood at 229 µM.
`COc1ccc(/C=N/Nc2nc(-c3cccc([N+](=O)[O-])c3)cs2)cc1OC` [3e]: the midpoint of inhibition, the IC50, lay at 502 µM.
On the same count and under the same terms, the value for `Cc1cc(C)cc(/C=N/Nc2nc(-c3cccc([N+](=O)[O-])c3)cs2)c1` [3b] was more than 100 µM; that for `Clc1ccc(-c2csc(N/N=C/c3ccccc3Br)n2)cc1` [3q] was more than 100 µM; that for `COc1ccc(OC)c(/C=N/Nc2nc(-c3cccc([N+](=O)[O-])c3)cs2)c1` [3d] was 139 µM.
`Cc1cc(C)cc(/C=N/Nc2nc(-c3ccc(Cl)cc3)cs2)c1` [3k] had a half-maximal inhibitory concentration (IC50) of more than 100 µM.
The same measure, in the same setting: with `Fc1ccccc1/C=N/Nc1nc(-c2ccc(Cl)cc2)cs1` [3o] the figure was more than 100 µM.
On the same count and under the same terms, the value for `O=[N+]([O-])c1cccc(-c2csc(N/N=C/c3ccccc3Br)n2)c1` [3h] was 342 µM; that for `O=[N+]([O-])c1cccc(-c2csc(N/N=C/c3cccc(Br)c3)n2)c1` [3i] was 413 µM; that for `Clc1ccc(-c2csc(N/N=C/c3cccc(Cl)c3)n2)cc1` [3p] was more than 100 µM.
On the same count and under the same terms, the value for `COc1ccccc1/C=N/Nc1nc(-c2ccc(Cl)cc2)cs1` [3l] was more than 100 µM.
As for `Cc1ccc(/C=N/Nc2nc(-c3cccc([N+](=O)[O-])c3)cs2)cc1` [3a], the IC50 is more than 100 µM.
Same read-out and setting: with `Cc1ccc(/C=N/Nc2nc(-c3ccc(Cl)cc3)cs2)cc1` [3j] the figure was 603 µM.
Same read-out and setting: with `O=[N+]([O-])c1cccc(-c2csc(N/N=C/c3cccc(Cl)c3)n2)c1` [3g] the figure was 299 µM.

The same test, now with this note: IC50 (µM), DENV protease inhibitory activity, 5 µM substrate, 10 nM NS2b-NS3pro, compounds at 1, 10 and 100 µM, 1 h at RT; compounds 3ao–3av.
Take `C/C(=N\Nc1nc(-c2ccccc2)cs1)c1ccc(O)cc1` [3ao]: the IC50 is 114 µM.
The molecule `C/C(=N\Nc1nc(-c2ccc(F)cc2)cs1)c1cc(O)cc(O)c1` [3av] showed a concentration for half-maximal inhibition (IC50) of 37.1 µM.
In turn, `C/C(=N\Nc1nc(-c2ccc(F)cc2)cs1)c1ccc(O)cc1` [3ar] yielded a concentration for half-maximal inhibition (IC50) of 250 µM.
Same read-out and setting: with `C/C(=N\Nc1nc(-c2ccc(C)cc2)cs1)c1ccc(O)cc1` [3ap] the figure was 56 µM; with `C/C(=N\Nc1nc(-c2ccccc2)cs1)c1cc(O)cc(O)c1` [3as], more than 100 µM.
Same read-out and setting: the value for `C/C(=N\Nc1nc(-c2ccc(C)cc2)cs1)c1cc(O)cc(O)c1` [3at] was 27.7 µM.

The same test, now with this note: IC50 (µM), DENV protease inhibitory activity, 5 µM substrate, 10 nM NS2b-NS3pro, compounds at 1, 10 and 100 µM, 1 h at RT; compounds 3s-3an.
Molecule `C/C(=N\Nc1nc(-c2ccc(Cl)cc2)cs1)c1cc(O)cc(O)c1` [3ag] had an IC50 of 92.3 µM.
Same read-out and setting: with `C/C(=N\Nc1nc(-c2cccc([N+](=O)[O-])c2)cs1)c1ccc(F)cc1` [3ad] the figure was more than 100 µM.
The same measure, in the same setting: with `C/C(=N\Nc1nc(-c2ccc(Cl)cc2)cs1)c1ccc(F)cc1` [3an] the figure was more than 100 µM; with `C/C(=N\Nc1nc(-c2cccc([N+](=O)[O-])c2)cs1)c1ccc(C)cc1` [3t], 113 µM.
Still for that read-out and setting: with `COc1ccc(OC)c(/C(C)=N/Nc2nc(-c3cccc([N+](=O)[O-])c3)cs2)c1` [3aa] the figure was more than 100 µM; with `COc1ccc(/C(C)=N/Nc2nc(-c3cccc([N+](=O)[O-])c3)cs2)cc1OC` [3ab], 31.4 µM.
`C/C(=N\Nc1nc(-c2ccc(Cl)cc2)cs1)c1ccc(O)cc1` [3af] gave a 50% inhibitory concentration (IC50) of 144 µM.
On the same count and under the same terms, the value for `COc1ccc(/C(C)=N/Nc2nc(-c3ccc(Cl)cc3)cs2)cc1` [3ai] was 399 µM; that for `C/C(=N\Nc1nc(-c2cccc([N+](=O)[O-])c2)cs1)c1ccc(Cl)cc1` [3ac] was more than 100 µM; that for `COc1ccc(OC)c(/C(C)=N/Nc2nc(-c3ccc(Cl)cc3)cs2)c1` [3ak] was 124 µM.
Still for that read-out and setting: the value for `COc1ccccc1/C(C)=N/Nc1nc(-c2cccc([N+](=O)[O-])c2)cs1` [3w] was 193 µM.
On to `COc1cccc(/C(C)=N/Nc2nc(-c3ccc(Cl)cc3)cs2)c1` [3ah], for which 263 µM corresponded to half-maximal inhibition (IC50).
On the same count and under the same terms, the value for `C/C(=N\Nc1nc(-c2ccc(Cl)cc2)cs1)c1ccc(C)cc1` [3ae] was more than 100 µM.
Same read-out and setting: the value for `C/C(=N\Nc1nc(-c2cccc([N+](=O)[O-])c2)cs1)c1cc(O)cc(O)c1` [3v] was 27.4 µM; that for `COc1ccc(/C(C)=N/Nc2nc(-c3cccc([N+](=O)[O-])c3)cs2)cc1` [3y] was 328 µM.
Take `COc1ccc(/C(C)=N/Nc2nc(-c3cccc([N+](=O)[O-])c3)cs2)c(OC)c1` [3z]: inhibition was half-maximal at 171 µM (IC50). Against the preceding molecule, the IC50 is about 1.9-fold lower.
Regarding `COc1ccc(/C(C)=N/Nc2nc(-c3ccc(Cl)cc3)cs2)cc1OC` [3al], the IC50 stood at 156 µM.
On the same count and under the same terms, the value for `C/C(=N\Nc1nc(-c2cccc([N+](=O)[O-])c2)cs1)c1ccc(O)cc1` [3u] was 28.7 µM; that for `COc1ccc(/C(C)=N/Nc2nc(-c3ccc(Cl)cc3)cs2)c(OC)c1` [3aj] was more than 100 µM.
With `COc1cccc(/C(C)=N/Nc2nc(-c3cccc([N+](=O)[O-])c3)cs2)c1` [3x], the IC50 came to 387 µM.

The same test, now with this note: protease IC50, -H replaced by -CH3 at R1.
Turning to `COc1ccc(/C(C)=N/Nc2nc(-c3cccc([N+](=O)[O-])c3)cs2)cc1OC` [3ab], the “fold improvement in potency in comparison with 3e” value is recorded as ~ 16 fold.

The values are drawn from article PMC11963559, “Identification of novel thiazole derivatives as flaviviral protease inhibitors effective against Dengue (DENV2) and Japanese encephalitis viruses” (Antimicrobial Agents and Chemotherapy, 2025).
